# Results from patent US20250230151A1, “COMPOUNDS FOR CANCERS DRIVEN BY BRAF MUTATION” (THE BOARD OF TRUSTEES OF THE UNIVERSITY OF ILLINOIS, priority 2021, published 2025).
# System: V600EBRAF melanoma cell lines
# Assay: Cell viability, panel of V600E BRAF melanoma cell lines
# Assay type: cell-based
# Details: range over the panel; read-out: IC50 values against a panel of V600EBRAF melanoma cell lines
# Experimental: Cell Culture and reagents. All cell lines were grown in a 37° C., 5% CO2, humidified environment, in media containing 1% penicillin/streptomycin. Cell culture conditions are as follows: MDCK cells transfected with MDR1 (or ABCB1) were obtained from the Netherlands Cancer Institute (Amsterdam, The Netherlands) and maintained in DMEM with 10% fetal bovine serum (FBS, Gemini). Traditional cell lines A375, CHL-1, B16F10, and U118MG were grown in DMEM with 10% FBS, SK-MEL-28, U87 and T98G in EMEM with 10% FBS, AM-38 in EMEM with 20% HI-FBS (Gibco), HT29 in McCoy's 5A with 10% FBS, HCT116 in RPMI with 10% FBS. Compounds were dissolved in DMSO (1% final concentration, Sigma-Aldrich) for cell culture studies.
# Cell viability assays. Cells were harvested, seeded in a 96-well plate and allowed to adhere overnight. Compound was added to each well in DMSO (1% final concentration). Cells were incubated for 72 hours before viability was assessed by the Alamar Blue Assay. Raptinal ([…]) was used as a dead control.
compound,measurement,value
"CCCS(=O)(=O)Nc1cc(Cl)cc(-c2nc(C(C)(C)C)sc2-c2ccnc(N)n2)c1F [6-261, N-(3-(5-(2-aminopyrimidin-4-yl)-2-(tert-butyl)thiazol-4-yl)-5-chloro-2-fluorophenyl)propane-1-sulfonamide]",IC50,2 to 10 nM
